Reference: article PMC2747590 (Chemical biology & drug design, 2009)
Read-outs that look alike come from different tables or passages of the source.

Experiments:
metastasis = conditions: 50 mg/kg/day; cited from earlier work
in vitro = conditions: male, Sprague-Dawley, rat, microsomes, pH 7.4
[1] = mice, single intraperitoneal dose at the same dose level (100 mg/kg); cited from earlier work
[2] = Plasma levels in mice after single intraperitoneal dose; conditions: female, BALB/c, mouse, in vivo, ip, 100 mg/kg
[3] = mouse, in vivo, ip
in vivo = conditions: female, BALB/c, mouse, ip
[4] = 14-day repeated dose toxicity study in mice; conditions: 5, 10 and 25 mg/kg/day i.p. for 14 days; normal behavior and food consumption
gelatinases = conditions: cited from earlier work

O=S(=O)(CC1CS1)c1ccc(Oc2ccccc2)cc1 (stereo not drawn) [Compound 1, (4-phenoxyphenylsulfonyl)methylthiirane]
efficacy in mouse models of metastasis (metastasis): has shown efficacy | remaining at 0.25 h, 25 μM (in vitro): 0.5% | plasma levels at 1 h [1]: < 1 µM

CS(=O)(=O)Oc1ccc(Oc2ccc(S(=O)(=O)CC3CS3)cc2)cc1 (stereo not drawn) [Compound 2, 4-(4-(Thiiranylmethylsulfonyl)phenoxy)-phenyl methanesulfonate]
concentration at 1 h [2]: 70.5 µM | Concentration of 2 at 1 h ([3]; female, BALB/c, 25 mg/kg/day, 1 h): 3.2 µM | Concentration of 2 at 1 h ([3]; 5 mg/kg/day): LOQ | Concentration of 2 at 1 h ([3]; 10 mg/kg/day): LOQ | concentration at 1 h (in vivo; 5 mg/kg/day): < 1 µM | concentration at 1 h (in vivo; 10 mg/kg/day): < 1 µM | concentration at 1 h (in vivo; 25 mg/kg/day): 3.2 µM | toxicity upon multiple-dose administration [4]: No toxicity was observed

O=S(=O)(CC1CS1)c1ccc(Oc2ccc(O)cc2)cc1 (stereo not drawn) [p-hydroxy variant]
gelatinase inhibitory activity relative to parent 1 (gelatinases): more active gelatinase inhibitor than the parent 1
